Measurements as given in ChEMBL document CHEMBL4673325, “Identification of 2-substituted pyrrolo[1,2-b]pyridazine derivatives as new PARP-1 inhibitors” (Bioorg Med Chem Lett, 2021).

Tests used:
[1] = molecular target: Poly [ADP-ribose] polymerase 2 (Homo sapiens, UniProt Q9UGN5); assay: Inhibition of PARP-2 (unknown origin)
Homo sapiens = organism: Homo sapiens; assay: Selectivity index, ratio of IC50 for PARP-2 (unknown origin) to IC50 for PARP-1 (unknown origin)
[2] = molecular target: Poly [ADP-ribose] polymerase 1 (Homo sapiens, UniProt P09874); assay: Inhibition of PARP-1 (unknown origin)
Poly [ADP-ribose] polymerase 1, sequence (P09874 whole entry): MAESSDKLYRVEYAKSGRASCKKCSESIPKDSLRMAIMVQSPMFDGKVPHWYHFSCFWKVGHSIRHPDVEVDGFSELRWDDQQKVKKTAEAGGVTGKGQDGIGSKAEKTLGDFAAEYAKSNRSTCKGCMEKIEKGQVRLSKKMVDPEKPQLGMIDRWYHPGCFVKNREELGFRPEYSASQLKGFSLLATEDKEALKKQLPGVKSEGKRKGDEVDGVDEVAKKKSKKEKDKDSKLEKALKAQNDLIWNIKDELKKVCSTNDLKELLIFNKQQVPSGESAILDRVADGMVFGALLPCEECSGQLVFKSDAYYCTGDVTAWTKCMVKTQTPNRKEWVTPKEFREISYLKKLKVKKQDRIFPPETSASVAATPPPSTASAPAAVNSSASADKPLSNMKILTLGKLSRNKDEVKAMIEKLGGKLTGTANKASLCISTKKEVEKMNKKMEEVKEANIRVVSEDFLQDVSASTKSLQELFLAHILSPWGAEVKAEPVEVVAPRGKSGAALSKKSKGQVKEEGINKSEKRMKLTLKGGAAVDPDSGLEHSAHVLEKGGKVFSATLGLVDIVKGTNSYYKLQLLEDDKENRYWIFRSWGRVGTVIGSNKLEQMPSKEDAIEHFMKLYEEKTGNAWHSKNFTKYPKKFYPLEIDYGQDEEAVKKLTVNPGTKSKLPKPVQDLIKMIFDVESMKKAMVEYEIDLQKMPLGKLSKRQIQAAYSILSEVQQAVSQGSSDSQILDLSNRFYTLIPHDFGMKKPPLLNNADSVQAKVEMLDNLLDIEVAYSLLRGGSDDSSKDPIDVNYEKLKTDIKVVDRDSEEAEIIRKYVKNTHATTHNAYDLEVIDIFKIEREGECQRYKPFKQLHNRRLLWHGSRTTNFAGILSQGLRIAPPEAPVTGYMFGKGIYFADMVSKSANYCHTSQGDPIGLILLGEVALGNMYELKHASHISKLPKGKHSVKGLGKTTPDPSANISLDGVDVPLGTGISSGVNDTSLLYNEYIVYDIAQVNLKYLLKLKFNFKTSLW

[3] = Antiproliferative activity against BRCA2 deficient chinese hamster V-C8 cells; format: functional, Cricetulus griseus
MDA-MB-436 [4] = assay: Antiproliferative activity against BRCA1 deficient human MDA-MB-436 cells; format: functional
MDA-MB-436 [5] = assay: Antitumor activity against human MDA-MB-436 cells harboring BRCA1 mutation xenografted in mouse assessed as tumor growth inhibition administered orally for 21 days; format: functional; conditions: time 21.0 day

Poly [ADP-ribose] polymerase 2, sequence (Q9UGN5 whole entry): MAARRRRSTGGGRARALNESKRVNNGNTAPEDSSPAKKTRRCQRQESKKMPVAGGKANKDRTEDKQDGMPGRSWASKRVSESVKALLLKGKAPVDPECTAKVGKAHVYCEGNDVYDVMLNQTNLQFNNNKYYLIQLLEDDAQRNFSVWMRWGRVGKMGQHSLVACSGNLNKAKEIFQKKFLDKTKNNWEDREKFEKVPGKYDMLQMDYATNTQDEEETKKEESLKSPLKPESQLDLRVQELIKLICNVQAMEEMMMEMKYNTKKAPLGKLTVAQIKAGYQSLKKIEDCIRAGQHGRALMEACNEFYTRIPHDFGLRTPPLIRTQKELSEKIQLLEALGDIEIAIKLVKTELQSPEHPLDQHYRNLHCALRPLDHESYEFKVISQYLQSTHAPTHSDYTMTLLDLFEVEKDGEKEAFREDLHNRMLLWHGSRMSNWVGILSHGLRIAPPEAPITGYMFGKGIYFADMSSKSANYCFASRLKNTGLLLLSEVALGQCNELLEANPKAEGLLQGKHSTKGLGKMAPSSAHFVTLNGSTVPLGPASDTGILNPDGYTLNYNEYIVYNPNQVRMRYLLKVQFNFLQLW

Structure (SMILES)	IC50 [1]	Ratio IC50 (Homo sapiens)	IC50 [2]	CC50 ([3]; Cricetulus griseus, V-C8)	CC50 (MDA-MB-436 [4]; Homo sapiens, MDA-MB-436)	CC50 [3]	CC50 (MDA-MB-436 [4])	TGI (MDA-MB-436 [5])
NC(=O)c1cc(Cl)c2ccc(-c3ccc(F)c(C(=O)N4CCN(C(=O)C5CC5)CC4)c3)nn12	1.92 µM	11.6	0.166 µM	7.03 µM	–	–	–	–
CNCc1ccc(-c2ccc3c(Cl)cc(C(N)=O)n3n2)cc1	1.12 µM	4.5	0.249 µM	2 µM	1.28 µM	–	–	–
CC(C)(C)C1NCCc2cc(-c3ccc4c(Cl)cc(C(N)=O)n4n3)sc21 (centres undefined)	1 µM	0.97	1.03 µM	2.04 µM	1.46 µM	–	–	–
CN1CCc2sc(-c3ccc4c(Cl)cc(C(N)=O)n4n3)cc2C1	0.363 µM	2.3	0.157 µM	2.64 µM	3.05 µM	–	–	–
O=C(c1cc(Cc2n[nH]c(=O)c3ccccc23)ccc1F)N1CCN(C(=O)C2CC2)CC1 [OLAPARIB]	–	–	–	–	–	0.4 µM	0.0114 µM	–
CN(C)C1CCN(Cc2ccc(-c3ccc4c(Cl)cc(C(N)=O)n4n3)cc2)CC1	1.13 µM	1.4	0.818 µM	2.78 µM	5.48 µM	–	–	–
NC(=O)c1cc(Cl)c2ccc(-c3ccc(C(=O)N4CCN(C(=O)C5CC5)CC4)cc3F)nn12	2.32 µM	10.7	0.219 µM	2.31 µM	2.95 µM	–	–	–
NC(=O)c1cc(Cl)c2ccc(-c3ccc(CN4CCN(c5ccc(C(F)(F)F)cc5)CC4)cc3)nn12	0.445 µM	0.13	3.33 µM	> 10 µM	8.09 µM	–	–	–
NC(=O)c1cc(Cl)c2ccc(-c3ccc(CN4CCNCC4)cc3)nn12	2.33 µM	3.7	0.627 µM	–	9.67 µM	–	–	–
CN(C)Cc1ccc(-c2ccc3c(Cl)cc(C(N)=O)n3n2)cc1	0.705 µM	7.5	0.0933 µM	6.2 µM	0.687 µM	–	–	–
CCN(CC)Cc1ccc(-c2ccc3c(Cl)cc(C(N)=O)n3n2)cc1	2.2 µM	5.1	0.433 µM	3.51 µM	3.73 µM	–	–	–
NC(=O)c1cc(Cl)c2ccc(-c3ccc(C(=O)N4CCN(C(=O)C5CC5)CC4)cc3)nn12	1.1 µM	2.5	0.443 µM	2.48 µM	9.54 µM	–	–	–
COC1CCN(C(=O)c2ccc(-c3ccc4c(Cl)cc(C(N)=O)n4n3)cc2)C1 (centres undefined)	1.71 µM	4.74	0.362 µM	–	9.64 µM	–	–	–
COC1CCN(C(=O)c2ccc(-c3ccc4c(Cl)cc(C(N)=O)n4n3)cc2)CC1	4.51 µM	1.28	3.51 µM	4.42 µM	–	–	–	–
NC(=O)c1cc(Cl)c2ccc(-c3ccc(C(=O)N4CCNCC4)cc3)nn12	1.01 µM	3	0.34 µM	> 10 µM	8.09 µM	–	–	–
NC(=O)c1cc(Cl)c2cc(-c3cc4c(s3)CNCC4)cnn12	–	–	–	–	–	–	–	Dose-dependent effect
COC1CCN(C(=O)c2ccc(-c3ccc4c(Cl)cc(C(N)=O)n4n3)c(F)c2)C1 (centres undefined)	1.59 µM	2.4	0.661 µM	–	–	–	–	–
NC(=O)c1cc(Cl)c2ccc(-c3ccc(CN4CCCC4)cc3)nn12	1.12 µM	2.6	0.432 µM	2.15 µM	5.4 µM	–	–	–
CN1CCc2cc(-c3ccc4c(Cl)cc(C(N)=O)n4n3)sc2C1	0.382 µM	2.7	0.141 µM	3.62 µM	2.58 µM	–	–	–
CC(C)CC(=O)N1CCN(C(=O)c2ccc(-c3ccc4c(Cl)cc(C(N)=O)n4n3)cc2)CC1	1.01 µM	2	0.502 µM	5.75 µM	3.84 µM	–	–	–
COC1CCN(C(=O)c2ccc(-c3ccc4c(Cl)cc(C(N)=O)n4n3)c(F)c2)CC1	1.64 µM	8.9	0.114 µM	–	–	–	–	–
NC(=O)c1cc(Cl)c2ccc(-c3ccc(CN4CCN(C5CC5)CC4)cc3)nn12	0.997 µM	0.92	1.08 µM	> 10 µM	75.2 µM	–	–	–
NC(=O)c1cc(Cl)c2ccc(-c3cc4c(s3)CCNC4)nn12	0.209 µM	–	0.00724 µM	1.33 µM	0.214 µM	–	–	–
CC(C)N1CCN(Cc2ccc(-c3ccc4c(Cl)cc(C(N)=O)n4n3)cc2)CC1	1.44 µM	3.9	0.369 µM	2.7 µM	3.55 µM	–	–	–
